This experiment has as its target T1, human SARM1(50-724) (Homo sapiens, UniProt Q6SZW1).
T1 construct: 40 nM human SARM1(50-724)
T1 sequence (Q6SZW1 50-724): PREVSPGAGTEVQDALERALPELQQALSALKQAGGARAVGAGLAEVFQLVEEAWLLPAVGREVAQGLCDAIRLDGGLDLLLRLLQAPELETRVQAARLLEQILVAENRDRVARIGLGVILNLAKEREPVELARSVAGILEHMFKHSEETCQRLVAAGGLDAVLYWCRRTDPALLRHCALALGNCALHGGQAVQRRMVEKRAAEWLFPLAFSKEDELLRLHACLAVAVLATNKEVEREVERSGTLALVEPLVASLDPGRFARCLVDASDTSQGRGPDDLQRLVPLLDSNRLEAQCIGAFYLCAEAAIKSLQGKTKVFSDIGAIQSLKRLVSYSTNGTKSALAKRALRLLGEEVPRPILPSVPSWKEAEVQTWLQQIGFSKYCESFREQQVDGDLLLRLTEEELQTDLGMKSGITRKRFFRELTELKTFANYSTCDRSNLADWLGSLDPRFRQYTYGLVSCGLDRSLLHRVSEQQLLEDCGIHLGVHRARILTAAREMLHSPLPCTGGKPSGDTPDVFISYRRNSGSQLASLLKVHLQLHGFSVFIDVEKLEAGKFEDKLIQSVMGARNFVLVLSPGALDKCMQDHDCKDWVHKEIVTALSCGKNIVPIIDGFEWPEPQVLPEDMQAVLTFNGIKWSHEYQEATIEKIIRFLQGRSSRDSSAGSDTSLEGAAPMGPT
Put plainly: SARM1 NADase biochemical assay (HPLC peak areas of NAD and NAM). To be noted: for IC50: dose-response, 1:3 serial dilution from 100 μM, 40 nM SARM1, 0.3 mM NMN, 20 μM NAD, 60 min rt.

[1] abbreviates: 50 μM compound, NAD peak area, read-out: Avg NAD % inhibition at 50 μM.
Where [2] appears, read: 50 μM compound, NAM peak area, read-out: Avg NAM % inhibition at 50 μM.
Where [3] appears, read: read-out: Avg NAD % inhibition at 50 μM.
Setting [4] is: read-out: Avg NAM % inhibition at 50 μM.

This note sets out measurements from patent US11945796B2, “Substituted pyridine derivatives as SARM1 inhibitors” (Nura Bio, Inc., priority 2020, dated 2024).

Where two headings read alike, the source gives them in different places. Where only a bound is given, the exact number is not on record here.

Consider `O=C(Nc1ccn(Cc2ccncc2)n1)c1cccc(F)c1` [Example 59, 3-Fluoro-N-(1-(pyridin-4-ylmethyl)-1H-pyrazol-3-yl)benzamide], for which the inhibition at 50 µM is, setting by setting: under setting [1], 0 to 50%; under setting [2], 0 to 50%. With “(R)-4-(1-(1-(2,2-Difluoroethyl)-1H-pyrazol-3-yl)ethyl)pyridine and (S)-4-(1-(1-(2,2-Difluoroethyl)-1H-pyrazol-3-yl)ethyl)pyridine [Example 110]”, the IC50 lay in the range of 10 to 100 µM.

For the compound `O=C(Cc1ccccc1)Nc1ccn(Cc2ccncc2)n1` [Example 36, 2-Phenyl-N-(1-(pyridin-4-ylmethyl)-1H-pyrazol-3-yl)acetamide], the inhibition at 50 µM runs as follows: under setting [3], 0 to 50%; under setting [4], 0 to 50%. `O=C(Nc1ccn(Cc2ccncc2)n1)c1ccccc1O` [Example 47, 2-Hydroxy-N-(1-(pyridin-4-ylmethyl)-1H-pyrazol-3-yl)benzamide]: the inhibition at 50 µM lay in the range of 0 to 50% under setting [1] and 0 to 50% under setting [2]. Turning to `COc1ccc(C(=O)Nc2ccn(Cc3ccncc3)n2)cc1` [Example 42, 4-Methoxy-N-(1-(pyridin-4-ylmethyl)-1H-pyrazol-3-yl)benzamide], the inhibition at 50 µM was 0 to 50% under setting [1] and 0 to 50% under setting [2].

In the case of `CC(c1ccncc1)n1ccc(N(C)c2nccs2)n1` (racemic) [Example 91, (rac)-N-Methyl-N-(1-(1-(pyridin-4-yl)ethyl)-1H-pyrazol-3-yl)thiazol-2-amine], the inhibition at 50 µM under setting [3] was 0 to 50% and the inhibition at 50 µM under setting [4] is 0 to 50%. In the case of `Fc1cn(Cc2ccncc2)nc1CC(F)(F)F` (racemic) [Example 104, 4-{[4-Fluoro-3-(2,2,2-trifluoroethyl)-1H-pyrazol-1-yl]methyl}pyridine], the IC50 lay in the range of 1 to 10 µM. `O=C(CCc1cc(F)ccc1F)Nc1ccn(Cc2ccncc2)n1` [Example 33, 3-(2,5-Difluorophenyl)-N-(1-(pyridin-4-ylmethyl)-1H-pyrazol-3-yl)propanamide]: the IC50 is greater than 100 µM. The inhibition at 50 µM under setting [1] lay within 51 to 100%. In addition, the inhibition at 50 µM under setting [2] is 51 to 100%. Take “(R)-2-(1-(1-(pyridin-4-yl)ethyl)-1H-pyrazol-3-yl)acetonitrile and (S)-2-(1-(1-(pyridin-4-yl)ethyl)-1H-pyrazol-3-yl)acetonitrile [Example 28]”: the IC50 fell in the range of 1 to 10 µM.

`FC(c1ccncc1)n1ccc(CC(F)(F)F)n1` (racemic) [Example 105, (rac)-4-{Fluoro[3-(2,2,2-trifluoroethyl)-1H-pyrazol-1-yl]methyl}pyridine]: the inhibition at 50 µM under setting [3] lay within 0 to 50% and the inhibition at 50 µM under setting [4] was 0 to 50%. For “(R)-4-(1-(1-(2,2-Difluoroethyl)-1H-pyrazol-3-yl)ethyl-2,2,2-d3)pyridine and (S)-4-(1-(1-(2,2-Difluoroethyl)-1H-pyrazol-3-yl)ethyl-2,2,2-d3)pyridine [Example 114]”, the “Avg NAD % inhibition at 50 μM” value (50 μM compound, NAD peak area) was “* (% Inhibition 0-50%)”. Further, the “Avg NAM % inhibition at 50 μM” value (50 μM compound, NAM peak area) was “* (% Inhibition 0-50%)”. Regarding `c1cc(Cn2ccc(NCC3CC3)n2)ccn1` [Example 93, N-(Cyclopropylmethyl)-1-(pyridin-4-ylmethyl)-1H-pyrazol-3-amine], the inhibition at 50 µM is 0 to 50% under setting [1] and 0 to 50% under setting [2]. `Cc1cnccc1Cc1ccn(CC(F)(F)F)n1` [Example 23, 3-Methyl-4-((1-(2,2,2-trifluoroethyl)-1H-pyrazol-3-yl)methyl)pyridine] registered an IC50 of 1 to 10 µM.

What is called inhibition is the percentage by which the read-out fell short of the control. Broadly, the IC50 is the concentration that gives 50% inhibition.
